Counter-ions that a name gives are not always drawn.
Key:
Tel-FGFR4 = Tel-FGFR4 (Homo sapiens (Human), UniProt P22455); assay: In vitro cellular kinase assay for FGFR4 (BaF3-Tel-FGFR4 cells, MSD capture ELISA of tyrosine phosphorylation); type: cell-based; settings: Cellular BaF3 FGFR4 assay; read-out: Cellular IC50
[1] = target: FGFR4 (GST-FGFR4(388-802)) (Homo sapiens (Human), UniProt P22455); assay: In-vitro biochemical kinase assay for FGFR4 (Caliper microfluidic mobility shift); settings: biochemical FGFR4 assay; read-out: Biochemical IC50
Chain of FGFR4 (GST-FGFR4(388-802)) (P22455 388-802): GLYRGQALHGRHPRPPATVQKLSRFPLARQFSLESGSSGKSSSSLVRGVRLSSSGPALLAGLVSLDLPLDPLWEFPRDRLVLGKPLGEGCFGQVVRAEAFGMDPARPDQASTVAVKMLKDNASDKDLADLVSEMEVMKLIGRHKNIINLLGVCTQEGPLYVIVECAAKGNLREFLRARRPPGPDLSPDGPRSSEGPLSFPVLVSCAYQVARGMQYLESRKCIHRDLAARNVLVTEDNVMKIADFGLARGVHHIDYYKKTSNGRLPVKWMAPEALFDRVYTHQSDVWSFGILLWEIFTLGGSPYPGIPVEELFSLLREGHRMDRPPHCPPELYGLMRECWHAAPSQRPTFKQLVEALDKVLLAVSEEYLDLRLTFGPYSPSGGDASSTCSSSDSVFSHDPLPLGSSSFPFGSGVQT

Chain of Tel-FGFR4 (P22455 other isoform, or with tags, fused parts or gaps): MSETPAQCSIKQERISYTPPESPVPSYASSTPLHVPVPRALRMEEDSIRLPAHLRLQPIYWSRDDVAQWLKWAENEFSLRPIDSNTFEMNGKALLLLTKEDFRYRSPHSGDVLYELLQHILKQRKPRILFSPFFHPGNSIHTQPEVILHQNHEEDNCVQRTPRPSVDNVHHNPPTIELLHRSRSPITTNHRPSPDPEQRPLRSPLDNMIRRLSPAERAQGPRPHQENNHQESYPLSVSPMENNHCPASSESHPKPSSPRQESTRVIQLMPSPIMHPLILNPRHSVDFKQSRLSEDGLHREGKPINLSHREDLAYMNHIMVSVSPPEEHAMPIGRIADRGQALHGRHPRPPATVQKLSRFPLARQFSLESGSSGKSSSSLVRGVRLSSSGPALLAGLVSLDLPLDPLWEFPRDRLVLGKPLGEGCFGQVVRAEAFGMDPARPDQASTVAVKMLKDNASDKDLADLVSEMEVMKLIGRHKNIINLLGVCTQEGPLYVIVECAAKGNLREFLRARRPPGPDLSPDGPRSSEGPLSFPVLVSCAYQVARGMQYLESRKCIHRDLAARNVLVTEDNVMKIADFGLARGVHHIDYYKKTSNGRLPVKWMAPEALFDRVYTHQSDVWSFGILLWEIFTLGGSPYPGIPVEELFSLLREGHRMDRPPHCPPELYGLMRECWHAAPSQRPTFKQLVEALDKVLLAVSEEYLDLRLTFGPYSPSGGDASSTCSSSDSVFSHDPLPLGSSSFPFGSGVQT

IC50 (Tel-FGFR4)	IC50 [1]	Compound
5.5 nM	0.5 nM	CCN(Cc1cc2c(nc1C=O)N(C(=O)Nc1cc(NCCOC)c(C#N)cn1)CCC2)C(=O)CN(C)C [N-(5-cyano-4-((2-methoxyethyl)amino)pyridin-2-yl)-6-((2-(dimethylamino)-N-ethylacetamido)methyl)-7-formyl-3,4-dihydro-1,8-naphthyridine-1(2H)-carboxamide]
6.1 nM	0.2 nM	COCCNc1cc(NC(=O)N2CCCc3cc(CN(C)C(=O)CN(C)C)c(C=O)nc32)ncc1C#N [N-(5-cyano-4-((2-methoxyethyl)amino)pyridin-2-yl)-6-((2-(dimethylamino)-N-methylacetamido)methyl)-7-formyl-3,4-dihydro-1,8-naphthyridine-1(2H)-carboxamide]
5.9 nM	0.1 nM	COCCNc1cc(NC(=O)N2CCCc3cc(CN4CCNC(C)(C)C4=O)c(C=O)nc32)ncc1C#N [N-(5-cyano-4-((2-methoxyethyl)amino)pyridin-2-yl)-6-((3,3-dimethyl-2-oxopiperazin-1-yl)methyl)-7-formyl-3,4-dihydro-1,8-naphthyridine-1(2H)-carboxamide]
63 nM	0.5 nM	COCCNc1cc(NC(=O)N2CCCc3cc(CN4CCC(N(C)C)C4)c(C=O)nc32)ncc1C#N (centres unmarked) [N-(5-cyano-4-((2-methoxyethyl)amino)pyridin-2-yl)-6-((3-(dimethylamino)pyrrolidin-1-yl)methyl)-7-formyl-3,4-dihydro-1,8-naphthyridine-1(2H)-carboxamide]
9.8 nM	1.6 nM	CCN1CCN(Cc2cc3c(nc2C=O)N(C(=O)Nc2cc(NCCOC)c(C#N)cn2)CCC3)C(=O)C1 [N-(5-cyano-4-((2-methoxyethyl)amino)pyridin-2-yl)-6-((4-ethyl-2-oxopiperazin-1-yl)methyl)-7-formyl-3,4-dihydro-1,8-naphthyridine-1(2H)-carboxamide]
51.3 nM	1.8 nM	COCCNc1cc(NC(=O)N2CCC(O)c3cc(CN4CCN(C)CC4=O)c(C=O)nc32)ncc1C#N (centres unmarked) [N-(5-cyano-4-((2-methoxyethyl)amino)pyridin-2-yl)-7-formyl-4-hydroxy-6-((4-methyl-2-oxopiperazin-1-yl)methyl)-3,4-dihydro-1,8-naphthyridine-1(2H)-carboxamide]
11 nM	1.4 nM	COCCNc1cc(NC(=O)N2CCCc3cc(CN4C(=O)CN(C)CC4(C)C)c(C=O)nc32)ncc1C#N [N-(5-cyano-4-((2-methoxyethyl)amino)pyridin-2-yl)-7-formyl-6-((2,2,4-trimethyl-6-oxopiperazin-1-yl)methyl)-3,4-dihydro-1,8-naphthyridine-1(2H)-carboxamide]
3.6 nM	1.1 nM	COCCNc1cc(NC(=O)N2CCCc3cc(CN4CCCC4=O)c(C=O)nc32)ncc1C#N [N-(5-cyano-4-((2-methoxyethyl)amino)pyridin-2-yl)-7-formyl-6-((2-oxopyrrolidin-1-yl)methyl)-3,4-dihydro-1,8-naphthyridine-1(2H)-carboxamide]
7.1 nM	1.3 nM	COCCNc1cc(NC(=O)N2CCCc3cc(CN4CCN(C)C(=O)C4)c(C=O)nc32)ncc1C#N [N-(5-cyano-4-((2-methoxyethyl)amino)pyridin-2-yl)-7-formyl-6-((4-methyl-3-oxopiperazin-1-yl)methyl)-3,4-dihydro-1,8-naphthyridine-1(2H)-carboxamide]
4 nM	0.6 nM	CCC(=O)N(C)Cc1cc2c(nc1C=O)N(C(=O)Nc1cc(NCCOC)c(C#N)cn1)CCC2 [N-(5-cyano-4-((2-methoxyethyl)amino)pyridin-2-yl)-7-formyl-6-((N-methylpropionamido)methyl)-3,4-dihydro-1,8-naphthyridine-1(2H)-carboxamide]
14.5 nM	3.1 nM	COCCNc1cc(NC(=O)N2CCCc3cc(-c4ccncc4)c(C=O)nc32)ncc1C#N [N-(5-cyano-4-((2-methoxyethyl)amino)pyridin-2-yl)-7-formyl-6-(pyridin-4-yl)-3,4-dihydro-1,8-naphthyridine-1(2H)-carboxamide]
18.8 nM	1.1 nM	COC(C)CNc1cc(NC(=O)N2CCCc3cc(C(F)F)c(C=O)nc32)ncc1C#N (centres unmarked) [N-(5-cyano-4-((2-methoxypropyl)amino)pyridin-2-yl)-6-(difluoromethyl)-7-formyl-3,4-dihydro-1,8-naphthyridine-1(2H)-carboxamide]
21 nM	2.6 nM	CC(=O)N(C)Cc1cc2c(nc1C=O)N(C(=O)Nc1cc(NCC3CN(C)CCO3)c(C#N)cn1)CCC2 (centres unmarked) [N-(5-cyano-4-(((4-methylmorpholin-2-yl)methyl)amino)pyridin-2-yl)-7-formyl-6-((N-methylacetamido)methyl)-3,4-dihydro-1,8-naphthyridine-1(2H)-carboxamide]
10.2 nM	0.2 nM	CCNc1cc(NC(=O)N2CCCc3cc(CN(CC)C(=O)CN(C)C)c(C=O)nc32)ncc1C#N [N-(5-cyano-4-(ethylamino)pyridin-2-yl)-6-((2-(dimethylamino)-N-ethylacetamido)methyl)-7-formyl-3,4-dihydro-1,8-naphthyridine-1(2H)-carboxamide]
3.6 nM	0.2 nM	CCNc1cc(NC(=O)N2CCCc3cc(CN(C)C(=O)CN(C)C)c(C=O)nc32)ncc1C#N [N-(5-cyano-4-(ethylamino)pyridin-2-yl)-6-((2-(dimethylamino)-N-methylacetamido)methyl)-7-formyl-3,4-dihydro-1,8-naphthyridine-1(2H)-carboxamide]
12 nM	3.4 nM	CCNc1cc(NC(=O)N2CCCc3cc(CN4CCN(C)CC4=O)c(C=O)nc32)ncc1C#N [N-(5-cyano-4-(ethylamino)pyridin-2-yl)-7-formyl-6-((4-methyl-2-oxopiperazin-1-yl)methyl)-3,4-dihydro-1,8-naphthyridine-1(2H)-carboxamide]

Further lines, the molecule ahead of its results:

Compound	IC50 (Tel-FGFR4)	IC50 [1]
CN1CCN(Cc2cc3c(nc2C=O)N(C(=O)Nc2cc(NC(C)(C)C)c(C#N)cn2)CCC3)C(=O)C1 [N-(4-(tert-butylamino)-5-cyanopyridin-2-yl)-7-formyl-6-((4-methyl-2-oxopiperazin-1-yl)methyl)-3,4-dihydro-1,8-naphthyridine-1(2H)-carboxamide]	11.5 nM	1.8 nM
N#Cc1cnc(NC(=O)N2CCCc3cc(C(F)F)c(C=O)nc32)cc1Cl [N-(4-chloro-5-cyanopyridin-2-yl)-6-(difluoromethyl)-7-formyl-3,4-dihydro-1,8-naphthyridine-1(2H)-carboxamide]	223 nM	57 nM
CN1CCN(Cc2cc3c(nc2C=O)N(C(=O)Nc2cc(OCC(F)F)c(C#N)cn2)CCC3)C(=O)C1 [N-(5-cyano-4-(2,2-difluoroethoxyl)pyridin-2-yl)-7-formyl-6-((4-methyl-2-oxopiperazin-1-yl)methyl)-3,4-dihydro-1,8-naphthyridine-1(2H)-carboxamide]	6.7 nM	1.2 nM
CN1CCN(Cc2cc3c(nc2C=O)N(C(=O)Nc2cc(OCCF)c(C#N)cn2)CCC3)C(=O)C1 [N-(5-cyano-4-(2-fluoroethoxyl)pyridin-2-yl)-7-formyl-6-((4-methyl-2-oxopiperazin-1-yl)methyl)-3,4-dihydro-1,8-naphthyridine-1(2H)-carboxamide]	7.1 nM	2.4 nM
COCCOc1cc(NC(=O)N2CCCc3cc(CN4CCNCC4=O)c(C=O)nc32)ncc1C#N [N-(5-cyano-4-(2-methoxyethoxyl)pyridin-2-yl)-7-formyl-6-((2-oxopiperazin-1-yl)methyl)-3,4-dihydro-1,8-naphthyridine-1(2H)-carboxamide trifluoroacetate]	56 nM	4.6 nM
CC(C)(O)CNc1cc(NC(=O)N2CCCc3cc(C(F)F)c(C=O)nc32)ncc1C#N [N-(5-cyano-4-((2-hydroxy-2-methylpropyl)amino)pyridin-2-yl)-6-(difluoromethyl)-7-formyl-3,4-dihydro-1,8-naphthyridine-1(2H)-carboxamide]	10.3 nM	1.6 nM
CN1CCN(Cc2cc3c(nc2C=O)N(C(=O)Nc2cc(NCC(C)(C)O)c(C#N)cn2)CCC3)C(=O)C1 [N-(5-cyano-4-((2-hydroxy-2-methylpropyl)amino)pyridin-2-yl)-7-formyl-6-((4-methyl-2-oxopiperazin-1-yl)methyl)-3,4-dihydro-1,8-naphthyridine-1(2H)-carboxamide]	4.8 nM	0.9 nM
N#Cc1cnc(NC(=O)N2CCCc3cc(C(F)F)c(C=O)nc32)cc1NCCO [N-(5-cyano-4-((2-hydroxyethyl)amino)pyridin-2-yl)-6-(difluoromethyl)-7-formyl-3,4-dihydro-1,8-naphthyridine-1(2H)-carboxamide]	5.5 nM	1 nM
CC(=O)N(C)Cc1cc2c(nc1C=O)N(C(=O)Nc1cc(NCCO)c(C#N)cn1)CCC2 [N-(5-cyano-4-((2-hydroxyethyl)amino)pyridin-2-yl)-7-formyl-6-((N-methylacetamido)methyl)-3,4-dihydro-1,8-naphthyridine-1(2H)-carboxamide]	8.1 nM	0.5 nM
COC(C)(C)CNc1cc(NC(=O)N2CCCc3cc(C(F)F)c(C=O)nc32)ncc1C#N [N-(5-cyano-4-((2-methoxy-2-methylpropyl)amino)pyridin-2-yl)-6-(difluoromethyl)-7-formyl-3,4-dihydro-1,8-naphthyridine-1(2H)-carboxamide]	37 nM	5.9 nM
COC(C)(C)CNc1cc(NC(=O)N2CCCc3cc(CN(C)C(C)=O)c(C=O)nc32)ncc1C#N [N-(5-cyano-4-((2-methoxy-2-methylpropyl)amino)pyridin-2-yl)-7-formyl-6-((N-methylacetamido)methyl)-3,4-dihydro-1,8-naphthyridine-1(2H)-carboxamide]	4.9 nM	0.7 nM
COCCNc1cc(NC(=O)N2CCCc3cc(-c4sc(C)nc4C)c(C=O)nc32)ncc1C#N [N-(5-cyano-4-((2-methoxyethyl)amino)pyridin-2-yl)-6-(2,4-dimethylthiazol-5-yl)-7-formyl-3,4-dihydro-1,8-naphthyridine-1(2H)-carboxamide]	21 nM	9.5 nM
